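Exposure lasted 48 hours, with cells grown in 96-well plates and compounds tested at five concentrations. TGI marks complete inhibition of growth.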
Experiments:
Test in all cases: DTP human tumour cell line panel, 48 h
786-0 renal = tested on: 786-0 renal
A498 renal = tested on: A498 renal
ACHN renal = tested on: ACHN renal
BT-549 breast = tested on: BT-549 breast
CAKI-1 renal = tested on: CAKI-1 renal
CCRF-CEM leukemia = tested on: CCRF-CEM leukemia
COLO 205 colon = tested on: COLO 205 colon
DU-145 prostate = tested on: DU-145 prostate
EKVX NSCLC = tested on: EKVX NSCLC
HCC-2998 colon = tested on: HCC-2998 colon
HCT-116 colon = tested on: HCT-116 colon
HCT-15 colon = tested on: HCT-15 colon
HL-60(TB) leukemia = tested on: HL-60(TB) leukemia
HOP-62 NSCLC = tested on: HOP-62 NSCLC
HOP-92 NSCLC = tested on: HOP-92 NSCLC
HS 578T breast = tested on: HS 578T breast
HT29 colon = tested on: HT29 colon
IGROV1 ovarian = tested on: IGROV1 ovarian
K-562 leukemia = tested on: K-562 leukemia
KM12 colon = tested on: KM12 colon
LOX IMVI melanoma = tested on: LOX IMVI melanoma
M14 melanoma = tested on: M14 melanoma
MALME-3M melanoma = tested on: MALME-3M melanoma
MCF7 breast = tested on: MCF7 breast
MDA-MB-231 breast = tested on: MDA-MB-231 breast
MDA-MB-435 = tested on: MDA-MB-435
MDA-N = tested on: MDA-N
MOLT-4 leukemia = tested on: MOLT-4 leukemia
NCI-H226 lung = tested on: NCI-H226 lung
NCI-H23 lung = tested on: NCI-H23 lung
NCI-H460 lung = tested on: NCI-H460 lung
NCI-H522 lung = tested on: NCI-H522 lung
NCI/ADR-RES ovarian = tested on: NCI/ADR-RES ovarian
OVCAR-3 ovarian = tested on: OVCAR-3 ovarian
OVCAR-4 ovarian = tested on: OVCAR-4 ovarian
OVCAR-5 ovarian = tested on: OVCAR-5 ovarian
OVCAR-8 ovarian = tested on: OVCAR-8 ovarian
PC-3 prostate = tested on: PC-3 prostate
RPMI-8226 leukemia = tested on: RPMI-8226 leukemia
RXF 393 renal = tested on: RXF 393 renal
SF-268 CNS = tested on: SF-268 CNS
SF-295 CNS = tested on: SF-295 CNS
SF-539 CNS = tested on: SF-539 CNS
SK-MEL-2 melanoma = tested on: SK-MEL-2 melanoma
SK-OV-3 ovarian = tested on: SK-OV-3 ovarian
SN12C renal = tested on: SN12C renal
SNB-19 CNS = tested on: SNB-19 CNS
SNB-75 CNS = tested on: SNB-75 CNS
SW-620 colon = tested on: SW-620 colon
T-47D breast = tested on: T-47D breast
TK-10 renal = tested on: TK-10 renal
U251 CNS = tested on: U251 CNS
UACC-257 melanoma = tested on: UACC-257 melanoma
UACC-62 melanoma = tested on: UACC-62 melanoma
A549 NSCLC = tested on: A549 NSCLC
SK-MEL-28 melanoma = tested on: SK-MEL-28 melanoma
SK-MEL-5 melanoma = tested on: SK-MEL-5 melanoma
SR leukemia = tested on: SR leukemia
UO-31 renal = tested on: UO-31 renal

O=c1cc(N2CCCC2)[nH]c(=O)n1-c1cccc(C(F)(F)F)c1
TGI (786-0 renal): > 100000 nM | TGI (A498 renal): > 100000 nM | TGI (ACHN renal): > 100000 nM | TGI (BT-549 breast): > 100000 nM | TGI (CAKI-1 renal): > 100000 nM | TGI (CCRF-CEM leukemia): > 100000 nM | TGI (COLO 205 colon): > 100000 nM | TGI (DU-145 prostate): > 100000 nM | TGI (EKVX NSCLC): > 100000 nM | TGI (HCC-2998 colon): > 100000 nM | TGI (HCT-116 colon): > 100000 nM | TGI (HCT-15 colon): > 100000 nM | TGI (HL-60(TB) leukemia): > 100000 nM | TGI (HOP-62 NSCLC): > 100000 nM | TGI (HOP-92 NSCLC): > 100000 nM | TGI (HS 578T breast): > 100000 nM | TGI (HT29 colon): > 100000 nM | TGI (IGROV1 ovarian): > 100000 nM | TGI (K-562 leukemia): > 100000 nM | TGI (KM12 colon): > 100000 nM | TGI (LOX IMVI melanoma): > 100000 nM | TGI (M14 melanoma): > 100000 nM | TGI (MALME-3M melanoma): > 100000 nM | TGI (MCF7 breast): > 100000 nM | TGI (MDA-MB-231 breast): > 100000 nM | TGI (MDA-MB-435): > 100000 nM | TGI (MDA-N): > 100000 nM | TGI (MOLT-4 leukemia): > 100000 nM | TGI (NCI-H226 lung): > 100000 nM | TGI (NCI-H23 lung): > 100000 nM | TGI (NCI-H460 lung): > 100000 nM | TGI (NCI-H522 lung): > 100000 nM | TGI (NCI/ADR-RES ovarian): > 100000 nM | TGI (OVCAR-3 ovarian): > 100000 nM | TGI (OVCAR-4 ovarian): > 100000 nM | TGI (OVCAR-5 ovarian): > 100000 nM | TGI (OVCAR-8 ovarian): > 100000 nM | TGI (PC-3 prostate): > 100000 nM | TGI (RPMI-8226 leukemia): > 100000 nM | TGI (RXF 393 renal): > 100000 nM | TGI (SF-268 CNS): > 100000 nM | TGI (SF-295 CNS): > 100000 nM | TGI (SF-539 CNS): > 100000 nM | TGI (SK-MEL-2 melanoma): > 100000 nM | TGI (SK-OV-3 ovarian): > 100000 nM | TGI (SN12C renal): > 100000 nM | TGI (SNB-19 CNS): > 100000 nM | TGI (SNB-75 CNS): > 100000 nM | TGI (SW-620 colon): > 100000 nM | TGI (T-47D breast): > 100000 nM | TGI (TK-10 renal): > 100000 nM | TGI (U251 CNS): > 100000 nM | TGI (UACC-257 melanoma): > 100000 nM | TGI (UACC-62 melanoma): > 100000 nM

CC(=O)OC1CC2(O)C3CCC4CC(O)CCC4(C)C3CCC2(C)C1C1=CC(=O)OC1 (stereo unspecified)
TGI (786-0 renal): 107 nM | TGI (A498 renal): 392 nM | TGI (A549 NSCLC): 32.3 nM | TGI (ACHN renal): 147 nM | TGI (BT-549 breast): 89.5 nM | TGI (CAKI-1 renal): 130 nM | TGI (CCRF-CEM leukemia): 1690 nM | TGI (COLO 205 colon): 760 nM | TGI (DU-145 prostate): 110 nM | TGI (EKVX NSCLC): 159 nM | TGI (HCC-2998 colon): 390 nM | TGI (HCT-116 colon): 186 nM | TGI (HCT-15 colon): 253 nM | TGI (HL-60(TB) leukemia): 237 nM | TGI (HOP-62 NSCLC): 178 nM | TGI (HOP-92 NSCLC): 19300 nM | TGI (HS 578T breast): > 100000 nM | TGI (HT29 colon): 779 nM | TGI (IGROV1 ovarian): 1770 nM | TGI (K-562 leukemia): 1870 nM | TGI (KM12 colon): 1870 nM | TGI (LOX IMVI melanoma): 209 nM | TGI (M14 melanoma): 367 nM | TGI (MALME-3M melanoma): 111 nM | TGI (MDA-MB-231 breast): 6610 nM | TGI (MDA-MB-435): 357 nM | TGI (MDA-N): 317 nM | TGI (MOLT-4 leukemia): 59.3 nM | TGI (NCI-H226 lung): 784 nM | TGI (NCI-H23 lung): 137 nM | TGI (NCI-H460 lung): 124 nM | TGI (NCI-H522 lung): 185 nM | TGI (NCI/ADR-RES ovarian): 298 nM | TGI (OVCAR-3 ovarian): 172 nM | TGI (OVCAR-4 ovarian): 190 nM | TGI (OVCAR-5 ovarian): 451 nM | TGI (OVCAR-8 ovarian): 272 nM | TGI (PC-3 prostate): 373 nM | TGI (RPMI-8226 leukemia): 445 nM | TGI (SF-268 CNS): 150 nM | TGI (SF-295 CNS): 222 nM | TGI (SF-539 CNS): 113 nM | TGI (SK-MEL-2 melanoma): 505 nM | TGI (SK-MEL-28 melanoma): 654 nM | TGI (SK-MEL-5 melanoma): 116 nM | TGI (SK-OV-3 ovarian): 642 nM | TGI (SN12C renal): 160 nM | TGI (SNB-19 CNS): 1250 nM | TGI (SNB-75 CNS): 618 nM | TGI (SR leukemia): 131 nM | TGI (SW-620 colon): 1410 nM | TGI (T-47D breast): 730 nM | TGI (TK-10 renal): 489 nM | TGI (U251 CNS): 427 nM | TGI (UACC-257 melanoma): 773 nM | TGI (UACC-62 melanoma): 475 nM | TGI (UO-31 renal): 270 nM
